# Laboratory results from patent US20260315446A1, “ANTIFUNGAL COMPOUNDS AND USES THEREOF” (priority 2023, published 2026).
# Experiments:
# C. neoformans H99 [1] = test: Survival in intranasal cryptococcosis model (Example 1); assay type: in vivo, Cryptococcus neoformans in A/J mice; conditions: 14 days treatment; JH-FK-05 60 mg/kg, fluconazole 12 mg/kg, i.p. daily
# Procedure: To verify if this reduction seen in the fungal burdens of JH-FK-05 and combination-treated animals could translate into a meaningful therapeutic effect, the survival of animals infected via the intranasal route was assessed (FIG. 8A). As in the fungal burden model, these animals received daily treatment for only 14 days. Following the termination of treatment, animals were monitored for signs of decline, lethargy, and ultimately, moribundity. Untreated animals in this model typically survive for about 3 weeks, and similar results were observed here (vehicle treatment median survival, 22 days). Corroborating the results of the fungal burden study, a significant extension of survival for both JH-FK-05 (median survival, 26 days) and fluconazole (median survival, 25 days) was observed.
# Female A/J mice (3 to 4 weeks old; Jackson Laboratory) were anesthetized utilizing an isoflurane chamber. While anesthetized, […] of 2×10^6 cells/mL suspension was dripped onto the nares of mice, allowing them to inhale the full inoculum. Treatment began 3 h following infection with i.p. dosing of vehicle, 60 mg/kg JH-FK-05, 12 mg/kg fluconazole, or combination. […] After 14 days, animals were either sacrificed for fungal burden analysis or monitored for health and survival until reaching a humane endpoint. […] Statistical significance was determined using log-rank (Mantel-Cox) tests.
# C. neoformans H99 [2] = test: Intranasal model of pulmonary cryptococcosis, lung fungal burden (Example 1); assay type: in vivo, Cryptococcus neoformans in A/J mice; conditions: day 14; JH-FK-05 60 mg/kg, fluconazole 12 mg/kg, i.p. daily
# Procedure: First, in the intranasal model, animals were anesthetized and infected with 10^5 cells of wild-type H99 C. neoformans via instillation in the animal's nares. These animals were monitored for 14 days and then sacrificed. This model tests the efficacy of JH-FK-05 to treat a pulmonary infection, which is the most common manifestation of early-stage cryptococcosis in patients. […] In both models, animals were treated once daily via i.p. injection beginning 3 h after infection with either vehicle, 60 mg/kg JH-FK-05, 12 mg/kg fluconazole, or a combination of the two monotherapies.
# Wild-type H99 C. neoformans cells were grown overnight at 30° C. in a roller drum in yeast extract-peptone-dextrose (YPD) medium. […] H99 cells were counted with a hemacytometer and diluted to 2×10^6 cells/mL in PBS for the pulmonary model and 2×10^5 cells/mL in PBS for the disseminated model.
# Female A/J mice (3 to 4 weeks old; Jackson Laboratory) were anesthetized utilizing an isoflurane chamber. […] After 14 days, animals were either sacrificed for fungal burden analysis or monitored for health and survival until reaching a humane endpoint.
# Mice were euthanized by CO2 inhalation at the predetermined experimental endpoint. […] A 100-μL aliquot of each dilution was plated on antibiotic plates (YPD, 50 μg/mL ampicillin, and 30 g/mL chloramphenicol), incubated for 48 to 72 h at 30° C., and assessed for CFU. […]
# [3] = test system: Aspergillus fumigatus (akuBKu80 hFKBP12); test: MIC/MEC against humanized A. fumigatus strain; assay type: cell-based
# Procedure: To confirm that JH-FK-05 was fungal FKBP12-dependent, a humanized A. fumigatus strain (the akuB^Ku80 hFKBP12 strain) expressing a codon-optimized human FKBP12 gene from the Affkbp12 native locus was utilized.
# In vitro antifungal activities of FK506, FK520, and analogs were assessed in RPMI 1640 (Sigma-Aldrich) for all strains tested. MICs/minimum effective concentrations (MECs) for each drug were measured using modified Clinical and Laboratory Standards Institute (CLSI) M38-A2 and M27-A3 standard in vitro antifungal susceptibility protocols. Broth microdilution assays for MIC/MEC assessment were performed as described previously (see, Juvvadi P R, et al., 2019, Nat Commun 10:4275). All antifungal assays with C. neoformans were performed at 37° C. Antifungal susceptibility testing for C. albicans was performed in the presence of a uniform 1 μg/mL concentration of fluconazole to sensitize the organism to calcineurin inhibition.
# [4] = test system: Cryptococcus deneoformans; test: MIC assay (Example 3); assay type: cell-based; conditions: 72 hours with 5 times starting amount of cells
# Procedure: For the lead compound JH-FK-08, the mechanism of action resulting in antifungal activity was tested for conservation of calcineurin inhibition. To probe the JH-FK-08 mechanism of action, MICs of JH-FK-08 were determined with fungal mutants that lack the drug-binding protein FKBP12 or have mutations in the binding site on calcineurin that prevent FKBP12-FK506 binding and inhibition. […] Taken together, these findings support the hypothesis that JH-FK-08 requires FKBP12 for antifungal activity, and the target of the FKBP12-JH-FK-08 complex is calcineurin. The length of time that drugs are active in vivo is critical information relevant to drug development, and the time frame of drug activity can have a drastic impact on treatment regimen and efficacy. Therefore, the pharmacokinetic profiles of FK506 and JH-FK-08 were investigated. Three male and three female CD1 mice were administered a single dose of JH-FK-08 or FK506 at 40 mg/kg. Whole blood samples were taken over a 24-hour period, and the drug concentration remaining in the blood was determined. Pharmacokinetic parameters were calculated using a non-compartmental approach (see, Gabrielsson J, Weiner D. 2012. Methods Mot Biol Clifton NJ 929:377-389). […] When assessing specific pharmacokinetic measures, sex differences began to emerge.
# In vitro antifungal activity was assessed for all fungal strains in RPMI 1640 (Sigma-Aldrich R1383). MICs were measured using Clinical and Laboratory Standards Institute (CLSI) M38-A2 and M27-A3 standard in vitro antifungal susceptibility protocols. C. neoformans and A. fumigatus testing was performed at 37° C. MECs for A. fumigatus were recorded after 48 h of growth. C. albicans testing was performed at 30° C. with a uniform concentration of 2 μg/mL of fluconazole to sensitize the cells to calcineurin inhibition.
# C. neoformans clinical isolate H99 and congenic-derived strain KN99α were used (see, Nielsen K, et al., 2003. Infect Immun 71:4831-4841). […]
SMILES,median survival (C. neoformans H99 [1]) [days],reduction of lung fungal burden (C. neoformans H99 [2]) [fold],antifungal activity against hFKBP12-expressing A. fumigatus strain [3],MIC/MEC ([3]; strain akuBKu80 hFKBP12) [µg/mL],MIC/MEC ([4]; strain C21F2 (JEC21 CNB1-1)) [µg/mL],MIC/MEC ([4]; strain C21F3 (JEC21 frr1)) [µg/mL],MIC/MEC ([4]; strain JEC21) [µg/mL]
CC[C@@H]1/C=C(\C)C[C@H](C)C[C@H](OC)[C@H]2O[C@@](O)(C(=O)C(=O)N3CCCC[C@H]3C(=O)O[C@H](/C(C)=C/[C@@H]3CC[C@@H](O)[C@H](OC)C3)[C@H](C)[C@@H](O)C/C1=N/NC(C)=O)[C@H](C)C[C@@H]2OC [JH-FK-05],26,~10,no detectable antifungal activity,>8,,,
CC[C@@H]1/C=C(\C)C[C@H](C)C[C@H](OC)[C@H]2O[C@@](O)(C(=O)C(=O)N3CCCC[C@H]3C(=O)O[C@H](/C(C)=C/C3CC[C@@H](O)[C@H](OC)C3)[C@H](C)[C@@H](O)C/C1=N/NC(=O)OC)[C@H](C)C[C@@H]2OC (stereo partly shown) [JH-FK-08],,,,,>25,>25,<0.4
